Measured values published in patent US11352637B2, “Methods and compositions for herbicide tolerance in plants” (MONSANTO TECHNOLOGY LLC, priority 2017, dated 2022).

Tests used:
[1] = system: seedlings of the R and S Kochia biotypes; assay: Root elongation response of Kochia seedlings; format: in vivo, Kochia scoparia
Protocol: The root elongation response of seedlings from the R and S Kochia biotypes was tested to determine if the R biotype response was consistent with the Y2H findings. For root elongation studies, plant nutrient media was used, with 0.5% sucrose. Seeds were surface sterilized in 30% bleach with 0.1% Triton-X100 for 10 to 30 minutes, then rinsed twice in sterile water and resuspended in 0.1% agar for plating. Root lengths were measured to the nearest millimeter, and the average root length of 12 individuals was calculated unless otherwise noted.

[2] = system: KsIAA16R in combination with KsAFB6; assay: Yeast two-hybrid (Y2H) assay: KsIAA16R binding with KsAFB6 in presence of auxin; set-up: species or system Kochia scoparia; details: for Interaction between KsIAA16R and KsAFB6 in the presence of the auxin: at the concentrations tested
Protocol: (§1) Yeast two-hybrid (Y2H) studies were conducted using the Matchmaker® Gold Yeast Two-Hybrid System: vectors, transformation protocols and yeast strains (Clonetech Laboratories, Inc.). The coding sequences for the KsIAA16R (SEQ ID NO: 220), KsIAA16S (SEQ ID NO: 218), KsTIR1 (SEQ ID NO: 285), KsAFB6 (SEQ ID NO: 287), KsAFB2 (SEQ ID NO: 289), and KsAFB5 (SEQ ID NO: 291) were PCR amplified using primers specified in Table 2.
(§2) PCR products were gel purified and recombined into NdeI/NotI digested pGADT7 or pGBKT7 vectors using the In-Fusion® cloning system (Clonetech Laboratories, Inc.). The pGBKT7 vector contained the GAL4 DNA binding domain, rendering the fusions as the “bait,” whereas the “prey” were the fusions containing the pGADT7 vector, which contained the GAL4 activation domain. All vectors were first sequence verified and then the listed vector combinations were co-transformed into the yeast strain, Y2HGold. […] Transformants were plated on SC-Trp-Leu plates to select for those containing both plasmids. Four healthy colonies were selected at random and resuspended into 300 μL of 0.1% agar in water. Five μL of this dilution was replica spotted onto each plate. Plates were incubated at 30° C. for 3 days prior to evaluation of colony growth.
(§3) This method enabled the study of the binding/interaction of the Kochia R and S alleles of KsIAA16 with each of the Kochia TIR/AFB homologs (KsTIR1 (SEQ ID NO: 285), and KsAFB6 (SEQ ID NO: 287)) in the absence or presence of 100 μM or 500 μM exogenous concentrations of IAA, NAA, dicamba, and 2,4-D, picloram, triclopyr, quinclorac, fluroxypyr or phenylacetic acid (PAA).

[3] = system: KsIAA16 (R and S alleles) with KsTIR1 and/or KsAFB6; assay: Y2H assay, summary statements over the protein combinations tested; format: binding, Kochia scoparia; details: for Facilitation of interaction of KsIAA16R with KsTIR1 and/or KsAFB6: at the concentrations tested
Protocol: as §1, §2, §3

[4] = system: KsIAA16S in combination with KsAFB6; assay: Yeast two-hybrid (Y2H) assay: KsIAA16S binding with KsAFB6 in presence of auxin; set-up: species or system Kochia scoparia; details: allele KsIAA16S; auxin 500 μM; yeast colony growth
Protocol: as §1
PCR products were gel purified and recombined into NdeI/NotI digested pGADT7 or pGBKT7 vectors using the In-Fusion® cloning system (Clonetech Laboratories, Inc.). The pGBKT7 vector contained the GAL4 DNA binding domain, rendering the fusions as the “bait,” whereas the “prey” were the fusions containing the pGADT7 vector, which contained the GAL4 activation domain. All vectors were first sequence verified and then the listed vector combinations were co-transformed into the yeast strain, Y2HGold. […] Transformants were plated on SC-Trp-Leu plates to select for those containing both plasmids. Four healthy colonies were selected at random and resuspended into 300 μL of 0.1% agar in water. Five μL of this dilution was replica spotted onto each plate. Plates were incubated at 30° C. for 3 days prior to evaluation of colony growth. […]

**Q.** What does the source list for `O=C(O)Cc1cccc2ccccc12` [NAA, 2-(1-naphthyl) acetic acid]?
**A.** Root elongation inhibition of the R Kochia biotype ([1]; R biotype seedlings, FIG. 5): remained sensitive; Ability of KsIAA16R to interact with KsAFB6 in the presence of the auxin ([2]; only the higher concentration could facilitate binding): reduced ability to interact; Facilitation of interaction of KsIAA16R with KsTIR1 and/or KsAFB6 [3]: can facilitate some interaction

**Q.** How did the “Effect on root elongation” value ([1]; Kochia seedlings, biotype not stated) turn out when `O=C(O)Cc1ccccc1` [PAA, phenylacetic acid] was run?
**A.** had an effect on root elongation

**Q.** And the “Y2H interaction in the presence of the auxin” value ([3]; any of the protein combinations tested)?
**A.** No interaction

**Q.** What does the source list for `Nc1c(Cl)c(Cl)nc(C(=O)O)c1Cl` [Picloram, 4-amino-3,5,6-trichloro-2-pyridinecarboxylic acid]?
**A.** Ability to bind in combination with KsAFB6 [4]: observed to interact; Interaction between KsIAA16R and KsAFB6 in the presence of the auxin [2]: not observed; Facilitation of interaction of KsIAA16R with KsTIR1 and/or KsAFB6 [3]: cannot

**Q.** How did the “Ability to bind in combination with KsAFB6” value [4] turn out when `O=C(O)c1c(Cl)ccc2cc(Cl)cnc12` [Quinclorac, 3,7-dichloro-8-quinolinecarboxylic acid] was run?
**A.** observed to interact

**Q.** What about the “Interaction between KsIAA16R and KsAFB6 in the presence of the auxin” value [2] of the same molecule?
**A.** not observed

**Q.** What about the “Facilitation of interaction of KsIAA16R with KsTIR1 and/or KsAFB6” value [3] of the same molecule?
**A.** cannot
